Test results reported in PMC5853558, “De novo identification of lipid II binding lipopeptides with antibacterial activity against vancomycin-resistant bacteria” (Chemical Science, 2017).
In brackets after ≈: the same amount, converted by molar mass. *1 amine or outer side, *2 acyl side, *3 side chain or, on linkers, in order; H or OH if unused. Where a SMILES comes first, the peptide text is derived from it. Bridges are numbered along the chain shown (N, C = ends). Where no end group is shown, it is not given here. [ ]: non-standard residue; d: D form. The star is where a group is joined. TBMB = c1c(C[*:1])cc(C[*:3])cc1C[*:2]; NHtetradecyl = CCCCCCCCCCCCCCN*; NHDecyl = CCCCCCCCCCN*

Columns and labels:
[1] = test system: S. pyogenes (5448); experiment: microbe, parasite or virus in culture; assay type: cell-based
Procedure: (§1) Section 4 Biological and biochemical experiments
(§2) 4.1 Minimum inhibitory concentration assay
(§3) MIC values were determined by using the broth microdilution method. Peptides were dissolved first in DMSO and diluted with broth so that the final peptide concentration was 1024 µg/ml and the DMSO concentration was 4%. Peptide serial dilutions were made in TSB in a polypropylene 96-wells plate using 50 µl volumes. An overnight culture of the organism of interest was diluted to and OD600 of 0.01 and grown until they reach 0.5. The culture was then diluted to 1 x 10^6 CFU/ml and 50 µl of this suspension was added to each well. The highest concentrations were then 512 µg/ml peptide and 2% DMSO. The plates were incubated at the preferred growth temperature of the organism that was used and 250 rpm. […] When […]
(§4) determining the MICs of the lipidated peptides, the lipopeptides were first dissolved in DMSO and diluted with TSB so that the peptide concentration was 128 µg/ml and the DMSO concentration was 4%. After inoculation the highest peptide concentration evaluated was 64 µg/ml and the DMSO concentration was 2%. A DMSO control was tested for each strain to ensure the DMSO did not affect the growth of the particular strain. […]

[2] = test system: B. subtilis (168); experiment: microbe, parasite or virus in culture; assay type: cell-based
Procedure: as §1, §2, §3, §4

[3] = test system: S. epidermidis (1587); experiment: microbe, parasite or virus in culture; assay type: cell-based
Procedure: as §1, §2, §3, §4

[4] = test system: E. faecium (VRE155); experiment: microbe, parasite or virus in culture; assay type: cell-based, Enterococcus faecium; details: for MIC VRE E155: Supplemental table S7, P8 with varying lipids, broth microdilution
Procedure: as §1, §2, §3, §4

[5] = test system: E. faecium (VRE2297); experiment: microbe, parasite or virus in culture; assay type: cell-based, Enterococcus faecium
Procedure: as §1, §2, §3, §4

[6] = test system: E. faecium (E980); experiment: microbe, parasite or virus in culture; assay type: cell-based, Enterococcus faecium
Procedure: as §1, §2, §3, §4

[7] = test system: E. faecium (VRE7391); experiment: microbe, parasite or virus in culture; assay type: cell-based, Enterococcus faecium
Procedure: as §1, §2, §3, §4

[8] = test system: E. faecium (VRE0321); experiment: microbe, parasite or virus in culture; assay type: cell-based, Enterococcus faecium
Procedure: as §1, §2, §3, §4

[9] = test system: M. luteus (NCTC2665); experiment: microbe, parasite or virus in culture; assay type: cell-based, Micrococcus luteus; details: for MIC M. luteus: Supplemental table S7, P8 with varying lipids, broth microdilution
Procedure, shortened: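 Growth inhibition was scored by broth microdilution in TSB against peptide serial dilutions (maximum 512 µg/ml; lipidated analogues maximum 64 µg/ml; 2% DMSO). Bacteria reaching OD600 0.5 were added from a 1 x 10^6 CFU/ml suspension, then plates were incubated shaking at 250 rpm.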

[10] = test system: lipid II; experiment: Lipid II antagonization assay; assay type: cell-based, M. luteus; parameters: key to Result with antagonist Lipid II: +: antagonization of antibiotic activity; -: no antagonization of antibiotic activity; details: for Result with antagonist Lipid II: Supplemental table S10, peptide at 4x MIC, antagonist at 4 molar equivalents, M. luteus 1 x 10^6 CFU/ml, 16 h at 30°C, growth observed visually; for Effect of pre-incubation with lipid II on antibacterial activity: premixed with an excess of lipid II before addition of a live culture of M. luteus
Procedure: (§5) To assess the role of lipid II in the mode of action of the lipopeptides a lipid II antagonization assay was employed.[18],[33] This assay was performed by premixing P8-D-C10 or the optimized P8-D-(S6R, R15A)-C10 with an excess of lipid II prior to addition of a live culture of M. luteus. […] To probe the stereochemical aspects of lipid II recognition by the optimized P8-D-(S6R, R15A)-C10 lipopeptide we also prepared and tested the corresponding enantiomeric L-peptide species P8-L-(S6R, R15A)-C10. […] Given that lipid II is a chiral biomolecule we had expected the enantiomeric lipopeptides to have different activities based on the assumption that they would interact differently with lipid II. To further investigate this phenomenon we employed the same lipid II antagonization assay described above. […] To explain this observation we hypothesize that the two enantiomeric peptides interact primarily with the pyrophosphate moiety of lipid II and are therefore less influenced by the chiral elements present elsewhere in the lipid II molecule. The pyrophosphate group is known to be a binding site for many natural occurring lipid II binding peptides.[15],[16] […] To test the hypothesis that both the P8-D-(S6R, R15A)-C10 and P8-L-(S6R, R15A)-C10 lipopeptides interact with the pyrophosphate moiety we performed an additional antagonizaiton experiment using C55-PP.
as §1, §2, §3, §4
(§6) 4.4 Antagonization assays
(§7) Stock solutions of each peptide antibiotic were prepared so that their final concentration in the assay would be 4x MIC. Peptides were transferred to a 96 wells plate and lipid II or C15-P (farnesyl-phosphate) was added at 4 molar equivalents in a final volume of 50 µl. Each well received 50 µl of bacterial suspension (M. luteus) at 1 x 10^6 CFU/ml and the plates were incubated for 16 h at 250 rpm and 30°C. Growth was observed visually (see supplemental table S10 for results).

[11] = test system: Sheep blood; experiment: Hemolysis assay; assay type: cell-based; details: for Hemolysis 32 µg/ml (after 1 h): Supplemental table S7, sheep blood cells in PBS, 1 h at 37°C, absorption at 414 nm
Procedure: Sheep blood in Alsever’s solution (2 mL) was diluted with PBS (13 mL) and centrifuged (2,000 RPM, 5 min). The supernatant was discarded and the cells were washed with another 13 mL of PBS and centrifuged. Washing was continued until the supernatant was clear. After the final wash the supernatant was discarded and the packed cells were kept on ice. Serial dilutions of each peptide were made in 50 µl PBS with the highest tested concentration 64 µg/mL in PBS, 2%
DMSO. The packed cells (150 µL) were suspended in PBS (10 mL) and 50 µL of this suspension was added to each well. A well plate column containing 0.1% triton x-100 in DI water was used as the 100% lysis control and a second column with PBS (with 2% DMSO) served as the 0% lysis control. After incubation at 37°C for 1h the plates were centrifuged (2,000 RPM, 5 min) and 25 µL of the supernatant was added to 100 µL DI water in a flat-bottom 96-wells plate (polystyrene). […]

[12] = test system: C15-P (farnesyl-phosphate); experiment: Antagonization assay with C15-P (negative control); assay type: cell-based; parameters: key: +: antagonization of antibiotic activity; -: no antagonization of antibiotic activity; details: Supplemental table S10, peptide at 4x MIC, 4 molar equivalents, M. luteus, 16 h at 30°C, growth observed visually
Procedure: as §1, §2, §3, §4, §6, §7
Supplemental table S10. Lipid II antagonization assay results
Result with indicated antagonista
Antibiotic compound Lipid II C55-PP C15-Pb […]
a + = antagonization of antibiotic activity; - = no antagonization of antibiotic activity; b C -P was used as a negative […]
control (C15-P is a watersoluble analogue of the lipid II precursor undecaprenol phosphate).
4.6 Scanning Electron Microscopy
E. faecium E155 was inoculated at an OD600nm of 0.05 into 300 µL of cation adjusted TSB containing P8-D-(S6R, R15A)-C10 or nisin at (both a 2x MIC) along with 1% glucose and 1%
DMSO. An untreated culture was used as control. Following overnight incubation (ca. 16 hr) bacterial cells were fixed for 15 minutes with 1% (v/v) glutaraldehyde in phosphate buffered saline (PBS) at room temperature on poly-L-lysine covered glass slides (12 mm diameter). […]

[13] = test system: C55-PP; experiment: Antagonization assay with C55-PP; assay type: cell-based, M. luteus; parameters: key to Result with antagonist C55-PP: +: antagonization of antibiotic activity; -: no antagonization of antibiotic activity; details: Supplemental table S10; peptide at 4x MIC, M. luteus, 16 h at 30°C, growth observed visually
Procedure: as §5, §1, §2, §3, §4, §6, §7

[14] = footnote to Supplemental table S7; observation in words during MIC experiments
[15] = read-out: Kd for undecaprenyl pyrophosphate (C55-PP); cited from earlier work
[16] = Supplemental table S9, MIC values of Table 2 expressed in µM
[17] = Table 2, broth microdilution in TSB, 16 h, read visually, highest tested 64 µg/ml
[18] = Supplemental table S6, lipidated phage display hits, n.a. = not active, highest tested conc 64 µg/ml
[19] = Supplemental table S9, vancomycin-resistant isolate, MIC values of Table 2 expressed in µM
[20] = Table 2, vancomycin-resistant isolate from hospitalized patients, broth microdilution in TSB, 16 h, highest tested 64 µg/ml

Molecule | MIC S. pyogenes (5448) [1, 16] [µM] | MIC S. pyogenes (5448) [1, 17] [μg mL^–1] | MIC B. subtilis (168) [2, 17] | MIC S. epidermidis (1587) [3, 17] [μg mL^–1] | MIC VRE E155 [4] [µg/mL] | MIC E. faecium (VRE155) [4, 19] [µM] | MIC E. faecium (VRE2297) [5, 20] | MIC E. faecium (E980) [6, 16] [µM] | MIC E. faecium (E980) [6, 17] [μg mL^–1] | MIC E. faecium (VRE7391) [7, 19] [µM] | MIC E. faecium (VRE7391) [7, 20] [μg mL^–1] | MIC E. faecium (VRE0321) [8, 19] [µM] | MIC E. faecium (VRE0321) [8, 20] [μg mL^–1] | MIC M. luteus [9] [µg/mL] | MIC M. luteus (NCTC2665) [9, 16] [µM] | Result with antagonist Lipid II [10] | Effect of pre-incubation with lipid II on antibacterial activity [10] | Hemolysis 32 µg/ml (after 1 h) [11] [%] | Result with antagonist C15-P [12] | Result with antagonist C55-PP [13] | also measured
CCCCCCCCCCNC(=O)CNC(=O)[C@H]1CSCc2cc3cc(c2)CSC[C@@H](NC(=O)[C@@H](CC(C)C)NC(=O)[C@@H](CC(C)C)NC(=O)[C@@H](CO)NC(=O)[C@@H](CCC(N)=O)NC(=O)[C@@H](CC(C)C)NC(=O)[C@@H](CC(C)C)NC(=O)[C@H](NC(=O)[C@@H](C)N)CSC3)C(=O)N2CCC[C@@H]2C(=O)N[C@H](Cc2ccc(O)cc2)C(=O)N[C@H](CO)C(=O)N[C@H]([C@H](C)O)C(=O)N[C@H](Cc2c[nH]cn2)C(=O)N[C@H](CCCNC(=N)N)C(=O)N1 [Peptide P8-D-C10] (H-[dA][dC][dL][dL][dQ][dS][dL][dL][dC][dP][dY][dS][dT][dH][dR][dC]G-NHDecyl; linker 2-9-16 via TBMB) | 7.6 (≈ 16.1 µg/mL) | 8 | 8–16 μg mL^–1 | 64 | 4 (≈ 1.89 µM) | 3.8 | 8–16 μg mL^–1 | 30.3 (≈ 64.2 µg/mL) | 32 | 7.6 (≈ 16.1 µg/mL) | 8 | 3.8 (≈ 8.05 µg/mL) | 4 | 4 (≈ 1.89 µM) | 3.8 (≈ 8.05 µg/mL) | + | antagonization of antibacterial activity | 6 | - | + | MIC B. subtilis [2, 18]: 8 to 16 µg/mL; Hemolysis ([11]; Supplemental table S9, 1 hour incubation at 37 °C, lipopeptides at 32 µg/mL): 6%
CCCCCCCCCCCCCCNC(=O)CNC(=O)[C@H]1CSCc2cc3cc(c2)CSC[C@@H](NC(=O)[C@@H](CC(C)C)NC(=O)[C@@H](CC(C)C)NC(=O)[C@@H](CO)NC(=O)[C@@H](CCC(N)=O)NC(=O)[C@@H](CC(C)C)NC(=O)[C@@H](CC(C)C)NC(=O)[C@H](NC(=O)[C@@H](C)N)CSC3)C(=O)N2CCC[C@@H]2C(=O)N[C@H](Cc2ccc(O)cc2)C(=O)N[C@H](CO)C(=O)N[C@H]([C@H](C)O)C(=O)N[C@H](Cc2c[nH]cn2)C(=O)N[C@H](CCCNC(=N)N)C(=O)N1 [Peptide P8-D-C14] (H-[dA][dC][dL][dL][dQ][dS][dL][dL][dC][dP][dY][dS][dT][dH][dR][dC]G-NHtetradecyl; linker 2-9-16 via TBMB; N-terminus assumed) |  |  |  |  | 4 to 64 |  |  |  |  |  |  |  |  | 4 to 64 |  |  |  | 12 |  |  | solubility of the peptide [14]: poor
Nisin (ITSISLCTPGCKTGALMGCNMKTATCHCSIHVSK; not fully specified (some residues, bridges); also: lantibiotic nisin-A: lanthionine rings and dehydro residues not placed; UniProt P13068 24-57, looked up) [reference compound] | < 0.3 | <1 | 4 μg mL^–1 | 4 |  | < 0.3 | 8 μg mL^–1 | 9.5 | 32 | 0.6 | 2 | 0.3 | 1 |  | < 0.3 | + | antagonization of antibacterial activity |  | - | + | Kd [15]: 133 nM; MIC B. subtilis (168) [2, 16]: 1.2 µM; MIC S. epidermidis (1587) [3, 16]: 1.2 µM; MIC E. faecium (VRE155) [4, 18]: < 1 µg/mL; MIC E. faecium (VRE155) [4, 20]: <1 μg mL^–1; MIC E. faecium (VRE2297) [5, 19]: 2.4 µM; MIC M. luteus (NCTC2665) ([9]; Table 2, broth microdilution in TSB, 16 h, read visually, highest tested 64 µg/ml, 2% DMSO): <1 μg mL^–1
